Values quoted from earlier work, collected in patent publication US20080051430A1, “Acylated Piperidine Derivatives as Melanocortin 4-Receptor Agonists” (priority 2004, published 2008).

Experiments:
[1] = test system: men with a variety of organic risk factors; conditions: subcutaneous injection; compared with placebo
[2] = in vivo, po
[3] = test system: males with psychogenic erectile dysfunction

Ac-Nle-c[Asp-His-DPhe-Arg-Trp-Lys]-NH2 [MT-II]
level of sexual desire [1]: significantly higher | absorption into the systemic circulation [2]: not absorbed into the systemic circulation | duration of action ([3]; in vivo): approximately 2.5 hours | time to onset of erection ([3]; in vivo): 10 to 20 min | response rate ([3]; injected intramuscularly or subcutaneously): 75%
